The subject of assay [1] is CA1 hippocampal pyramidal cells. The experiment in a line: Input resistance and neuronal excitability (spiking), hippocampal slice. The class given is cell-based, mouse. As for the experimental part: Tonic current was recorded as the difference current produced by 120 μM gabazine, which blocks all GABAA receptor, before and after 30 nM THP^24. Current was also recorded in response to 2 s 10 mV steps in the holding potential, and current-voltage curves generated to the steady-state current. Because fast-inactivating conductances would not be excluded in a voltage ramp, stable steady-state current responses were used instead to construct the current-voltage (IV) curves. Input resistance (Rm) was calculated from the current response to voltage steps from −60 to −40 mV using Ohm's Law. The reversal potential was determined by the […] of the IV curve (−90 to −10 mV). The gabazine-sensitive slope conductance was assessed as the slope of the linear portion of outward current plot recorded before and after THP after subtraction of the gabazine-generated current (in the presence of L-655,708 to block α5-GABAA receptors). Only data with a stable baseline and pipet access resistance <10 MΩ were included in the analysis.
Effects of THP on cell excitability were tested by monitoring spiking using cell attached patch recordings^31 in voltage clamp mode (−40 mV holding potential, 150 mM NaCl intrapipet solution) or assessing the current threshold to spiking and spike frequency in current clamp mode (0.01-0.3 nA steps, starting from −1 nA, 1 s duration). (More complete details are supplied in the Supplementary Methods.)

The next assay concerns α4β2δ GABAA receptors. The experiment in a line: Whole cell patch clamp of GABA-gated current, recombinant receptors in HEK-293 cells. It is filed as cell-based, human or mouse α4, rat β2, human δ. As to conditions: 30 nM THP. An excerpt: (§1) Recombinant receptors: Transfection—Plasmids obtained from S. Vicini (rat α1, α5, β2, β3 and γ2), P. Whiting (human α4 and δ) and N. L. Harrison (mouse α4) were propagated in E coli DH5α and prepared using Qiagen Maxi- or Midi-prep kits. (Rat, mouse and human α1, β2, β3 and γ2 subunits are identical or nearly identical.) All receptors were transfected at a 1:1:1 ratio, except α1β2γ2 (1:1:5)^12, α4βδ (5:1:5)^13 and α4β2γ2 (5:1:1). HEK-293 cells were maintained in medium (DMEM:Ham's F-12 1:1) supplemented with 10% fetal calf serum at 37° C. in a humid 5% CO2 atmosphere. Cells were transfected using calcium phosphate or Polyfect (Qiagen) and co-transfected with enhanced green fluorescent protein (ratio of DNA to eGFP was 6:1 or 10:1 depending on the DNA concentration) for visualization. α4-containing GABAA receptors required 2-3 d for maximal levels of expression; all other receptors were recorded 1-2 d after transfection. Because mouse α4 and human α4-containing receptors yielded the same results, the currents were averaged together.
Whole cell patch clamp recording—GABA-gated currents were recorded at room temperature (20-22° C.) at a holding potential of −50 mV^14. The pipet solution contained (in mM): N-methyl-D-glucamine chloride 120, Cs4BAPTA 5 (Calbiochem), Mg-ATP 5, and an ATP regeneration system (20 mM Tris phosphocreatine and creatine kinase). Internal [Cl^−] or the holding potential were varied, using gluconate as the anion, to alter the direction of Cl^− flow, corrected for the junction potential. In some cases, current-voltage curves were constructed using the peak current response to agonist or agonist+THP across a range of holding potentials (−60 to +60) applied as 10 mV steps, or as a voltage ramp. […] Traces are presented as the average of 3 traces after subtraction of the leak current. […] This rapid application technique yields currents with a rapid rise phase. THP was also bath applied 30 s prior to tests of steroid effects. Currents were recorded using an Axopatch 1D amplifier (Axon Instruments) filtered at 2 kHz (four-pole Bessel filter) and detected at 10 kHz (pClamp 5.1). Analysis of peak current was accomplished with pClamp 9.2 and Origin software (Microcal).
Following the recording, the patch was blown out, and the open tip potential recorded using solutions with a 5% difference in NaCl osmolarity to verify the approximate solution exchange time. The time constant (τ) for desensitization was approximated using non-linear curve fitting routines with Levenburg-Marquardt algorithms (Origin software, Microcal). Goodness of fit was determined by minimizing the sum of the squares of deviations of the theoretical curve from the experimental points.
Recombinant receptors: Human embryonic kidney (HEK)-293 cells were transfected with α4 β2δ or other indicated subunit combinations (see Supplementary Methods) and co-transfected with enhanced green fluorescent protein for visualization. GABA-gated currents were recorded at room temperature (20-22° C.) at a holding potential of −50 mV^17 using a pipet solution containing 120 mM: N-methyl-D-glucamine chloride. Internal [Cl^−] or the holding potential were varied to alter the direction of Cl^− flow. […] Currents were recorded using an Axopatch 1D amplifier (Axon Instruments) filtered at 2 kHz (four-pole Bessel filter), detected at 10 kHz and analyzed with pClamp 9.2. Desensitization rate was determined using non-linear curve-fitting routines (Origin, Microcal; see next section).
Further Studies with Recombinant receptors: Transfection—Plasmids obtained from S. Vicini (rat α1, α5, β2, β3 and y2), P. Whiting (human α4 and 6) and N. L. Harrison (mouse α4) were propagated in E coli DH5α and prepared using Qiagen Maxi- or Midi-prep kits. (Rat, mouse and human α1, β2, β3 and γ2 subunits are identical or nearly identical.) All receptors were transfected at a 1:1:1 ratio, except a132γ2 (1:1:5)^12, α4β28 (5:1:5)^13 and α4β2γ2 (5:1:1). […]

The next assay relates to α4β2γ2 receptors. Described as above. It is filed as cell-based, human or mouse α4, rat β2, rat γ2. The settings on record: 30 nM THP.
From the text: as §1
Whole cell patch clamp recording—GABA-gated currents were recorded at room temperature (20-22° C.) at a holding potential of −50 mV^14. […] Currents were recorded using an Axopatch 1D amplifier (Axon Instruments) filtered at 2 kHz (four-pole Bessel filter) and detected at 10 kHz (pClamp 5.1). […]

The mark [2] stands for this setting: puberty, whole cell current clamp.

For `CC(=O)[C@H]1CC[C@H]2[C@@H]3CC[C@H]4C[C@H](O)CC[C@]4(C)[C@H]3CC[C@]12C` [THP, 3α-OH-5α[β]-pregnan-20-one], the “increase of input resistance” value in assay [1] (30 nM THP, puberty, 10 mV steps −60 to −40) amounted to 38±5%. Besides, in assay [1] (before puberty), the “effect on input resistance” value was “decreased input resistance” and the “effect on neuronal excitability” value is reported as “decreased neuronal excitability”. In addition, the “effect on spiking, cell-attached” value in assay [1] (puberty) is listed as “increased spiking”. In assay [1] (setting [2]), the “effect on action potential frequency” value is given as “increased action potential frequency” and the “effect on current threshold for spiking (I threshold)” value is “reduced the amount of current necessary for triggering a spike”. For the same compound, in assay [1] (slices from δ−/− mice), the “THP-induced increase of input resistance” value was “not seen” and the “excitatory effect on neuronal firing” value is “not observed”. The “effect on Cl− reversal potential” value in the assay with α4β2δ GABAA receptors is on record as “did not itself alter the Cl^− reversal potential”. The “effect applied without GABA” value in the assay with α4β2δ GABAA receptors (no GABA) is “had no effect”. The “effect on outward current gated by 20 nM GABA” value with α4β2δ GABAA receptors (20 nM GABA) is listed as “potentiated”. The “effect on inward currents” value with α4β2δ GABAA receptors (1 μM GABA) is given as “robustly increased inward currents”. Also, the “decrease of outward GABA-gated Cl− current” value with α4β2δ GABAA receptors (1 μM GABA, −50 mV, mean±SEM) was 28±3%. Further, in the assay with α4β2δ GABAA receptors (100 μM GABA), the “effect on peak current” value was “unchanged”. In addition, in the assay on α4β2δ GABAA receptors (100 μM GABA for 2 s, pre-THP 8±2%), the “desensitization of outward currents” value was determined as 87±5.6%. Moreover, the “time constant (τ) of desensitization” value in the assay with α4β2δ GABAA receptors (100 μM GABA, pre-THP 1700±200 ms) turned out to be 230 ± 35 ms. The “decrease of conductance of the outward current” value in the assay with α4β2δ GABAA receptors (across a range of voltage steps) is on record as 36-43%. Also, the “effect on outward current” value in the assay on α4β2γ2 receptors is “either increased or had no effect”.

These data come from patent US20090269795A1, “Mutant alpha4betadelta GABAA receptor and methods of treating anxiety or irritability” (priority 2007, published 2009).
